In general, Ki refers to the dissociation constant of the complex between target and ligand, obtained from inhibition or displacement.

This assay addresses T1, Carbonic anhydrase 2 (Mycobacterium tuberculosis, UniProt P9WPJ9).
T1 sequence (P9WPJ9 whole entry): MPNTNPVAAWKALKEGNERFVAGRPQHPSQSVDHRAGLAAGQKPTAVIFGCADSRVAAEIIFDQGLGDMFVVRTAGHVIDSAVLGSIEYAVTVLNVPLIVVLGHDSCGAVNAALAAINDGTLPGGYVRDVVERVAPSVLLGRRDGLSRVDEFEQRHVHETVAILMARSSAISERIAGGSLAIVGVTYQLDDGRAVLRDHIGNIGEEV
Description: Inhibition of full length Mycobacterium tuberculosis H37Rv recombinant carbonic anhydrase 2 encoded by RV3588c by stopped flow CO2 hydration assay
The compound `Cc1ccc(S(N)(=O)=O)cc1` [P-TOLUENESULFONAMIDE] came in with a Ki of 38.9 µM. This counts as double-digit micromolar.
Under `NCc1ccc(S(N)(=O)=O)cc1` [MAFENIDE] stands 30.7 µM.
Compound `Nc1ccc(S(N)(=O)=O)cc1Br` had a Ki of 31.6 µM.
For `Nc1ccc(S(N)(=O)=O)cc1I` the value was 32.4 µM; for `NS(=O)(=O)c1ccc(CO)cc1`, 38.3 µM; for `NS(=O)(=O)c1ccc(S(=O)(=O)Nc2cccc3c(Cl)c[nH]c23)cc1`, 0.717 µM.
For `NS(=O)(=O)c1nnc(-c2ccccc2Cl)s1` the value was 45.2 µM.
Under `Nc1ccc(S(=O)(=O)NCCc2ccc(S(N)(=O)=O)cc2)cc1` stands 2.29 µM; under `NCCc1ccc(S(N)(=O)=O)cc1`, 29.1 µM.

The values above are taken from ChEMBL document CHEMBL1154641 (Bioorg Med Chem Lett, 2009).
